Three compounds from patent US11840531B2, “CDK8/19 inhibitors” (JOINT STOCK COMPANY “BIOCAD”, priority 2018, dated 2023) can be followed below.

Where only a bound is given, the exact number is not on record here.

Series [1] can be described thus: Permeability through Caco-2 cell monolayer. As to conditions: human; for Papp A→B at 2 h, 10 μM: Caco-2, A→B, pH 6.5/7.4, 2 hour incubation; for efflux ratio at 2 h, 10 μM: Caco-2, Papp B-A/Papp A-B. In kind it is in vitro ADME. The procedure:
Estimation of permeability through Caco-2 cell monolayer enables assessment of the ability of the substances to penetrate through biological membranes by means of both active and passive transport.
Intestinal epithelial cells Caco-2 were grown on filter inserts (pore size 0.4 jam, BD Falcon with High Density) for 21 days; monolayer integrity was then checked using Lucifer Yellow (Sigma-Aldrich, USA) according to the standard protocol. In A→B transfer (“intestinal lumen”-“blood stream” transfer), solutions of the test substances in buffer, pH 6.5 (HBSS, 10 mM HEPES, 15 mM glucose) at a concentration of 10 μM were added to the upper chamber; whereas the lower chamber was filled with buffer, pH 7.4 (HBSS, 10 mM HEPES, 15 mM Glucose, 1% BSA). In B→A transfer (“blood stream”-“intestinal lumen” transfer), the upper chamber was filled with buffer, pH 6.5, whereas the solutions of the test substances in buffer, pH 7.4, at a concentration of 10 μM were added to the lower chamber. A highly permeable substance propranolol was used as a control.
After 2 hour incubation at 37° C. under an atmosphere containing 5% CO2, the amounts of the test substances in the upper and lower chambers were measured by HPLC using an Agilent1200 HPLC system (Agilent, USA), proteins were preliminarily precipitated with acetonitrile. Chromatographic analysis was performed in a gradient elution regime with a flow rate of 1 mL/min. The peak areas corresponding to the compounds were detected on chromatograms. Based on the peak areas of a compound in the calibration standards, concentration of the compound in the initial solution and in the samples from upper chamber wells and lower chamber wells was measured.
Cellular permeability coefficient Papp was calculated by the formula: Papp=(Ca(t)*Va)/(Cd(0)*t*Area), where Papp is the effective permeability constant, m/s V is the volume of solution (0.8 ml in A→B test, 0.2 ml in B→A test), ml Area is the membrane surface area (0.33 cm^2), cm^2 t is the time of incubation (7200 sec), sec Cd(0) is the initial solution concentration, μM Ca(t) is the concentration of the solution after 2 hours (the concentration in the sample from the well of the lower chamber in A→B test; the concentration in the sample from the well of the top chamber in B→A test), μM
The value was calculated by the following formula: efflux=Papp B-A/Papp A-B, where Pape A-B-direct A→B test permeability value Papp B-A-reverse B→A test permeability value
On the technique in general: Caco-2 monolayers are a common model of the intestinal barrier.

The next series deals with CDK8/Cyclin C (Homo sapiens (Human), UniProt P49336). As to the kind of experiment: LanthaScreen binding to recombinant CDK8/Cyclin C. The settings on record: TR-FRET, Tracer 236 10 nM, CDK8/Cyclin C 5 nM. How it is done: Capability of compounds of the present invention to bind to CDK8 protein was detected using LanthaScreen (ThermoFisher) assay. We detected FRET signal proportional to the amount of CDK8-bound fluorescently-labeled ligand (Tracer 236) that competes with inhibitor for ATP binding site. We carried out the measurements in a 15 μl reaction volume using a 384-well plate (Corning, #CLS4513). Enzyme CDK8/Cyclin C (ThermoFisher, #PR7261B) was mixed with antibodies Anti-His-tag-Biotin (ThermoFisher, #PV6090), Streptavidin-Eu (ThermoFisher, #PV6025), the resulting mixture was added to plate wells (5 MKπ/well). Final concentrations of substances were as follows: CDK8/Cyclin C—5 nM, Streptavidin-Eu—3 nM, Anti-His-tag-Biotin—3 nM. Staurosporine (S4400, Sigma) was used as a reference inhibitor, and 0.1% solution of dimethyl sulphoxide (DMSO) in reaction buffer was used as a blank, the reaction buffer comprised 250 mM HEPES (pH 7.5), 50 mM MgCl2, 5 mM EGTA, and 0.05% Brij-35.
Sequence of CDK8/Cyclin C (P49336 whole entry): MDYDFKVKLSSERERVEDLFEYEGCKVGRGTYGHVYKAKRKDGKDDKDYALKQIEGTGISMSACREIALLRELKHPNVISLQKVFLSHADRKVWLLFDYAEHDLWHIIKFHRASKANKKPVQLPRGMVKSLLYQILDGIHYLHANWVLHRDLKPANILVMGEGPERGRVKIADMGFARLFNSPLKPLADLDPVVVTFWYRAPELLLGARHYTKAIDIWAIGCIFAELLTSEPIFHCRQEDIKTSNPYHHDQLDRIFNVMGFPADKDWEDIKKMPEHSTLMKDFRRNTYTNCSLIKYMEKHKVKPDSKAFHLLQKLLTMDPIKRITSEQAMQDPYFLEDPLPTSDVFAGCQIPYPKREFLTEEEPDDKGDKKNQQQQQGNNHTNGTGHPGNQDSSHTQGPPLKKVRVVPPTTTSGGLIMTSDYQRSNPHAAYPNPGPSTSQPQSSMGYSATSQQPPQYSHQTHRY
Sequence of CDK8/Cyclin C (P24863 whole entry partner): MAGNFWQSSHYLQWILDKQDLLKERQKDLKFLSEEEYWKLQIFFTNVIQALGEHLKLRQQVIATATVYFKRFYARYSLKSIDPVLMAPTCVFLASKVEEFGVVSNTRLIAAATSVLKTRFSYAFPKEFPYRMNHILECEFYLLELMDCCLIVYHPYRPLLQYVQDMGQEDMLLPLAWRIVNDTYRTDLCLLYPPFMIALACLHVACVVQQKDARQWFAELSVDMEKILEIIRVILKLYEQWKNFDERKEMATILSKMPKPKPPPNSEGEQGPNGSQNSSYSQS
The inhibitors and controls in question were added to corresponding wells (5 μl/well). The plate was incubated at room temperature for 20 minutes. After incubating, 5 μl/well of tracer solution Alexa Fluor-647 (Kinase Tracer 236, ThermoFisher, #PV5592)) was added to the wells. Final concentration of tracer was 10 nM. Reaction buffer, instead of tracer solution, was used as a negative control. The plate was incubated for 40 minutes at 25° C., TR-FRET signal was then measured according to the manufacturer's guidelines on SPARK20 plate reader (Tecan, Switzerland), and the value was converted to the amount of kinase-bound tracer. IC50 values were calculated using SparkControl Magellan 1.2 software (Tecan, Switzerland) approximating experimental points by four-parameter logistic model with the optimization by Levenberg-Marquardt (Table 5).
(TR-FRET usually uses a lanthanide donor and a delayed reading to cut background.)

A short description of series [2]: General cytotoxicity on HepG2 cells. As to conditions: human, 72 h incubation. It counts as cell-based. How it is done:
The CC50 values were determined in the test for General cytotoxicity On HepG2 cells (hepatocellular carcinoma, ATCC® HB-8065™). Cells per well were seeded in 96-well plates (Corning, #3599) at a concentration ≈20×10^3 cells in 100 μL of medium and incubated for 72 h with added compounds within the range of concentrations of 200 to 0.78 μM. Cell viability was assessed using the above method.

What is called Papp A→B is how fast a substance crosses the layer from the apical side. For orientation: efflux ratio means a quotient of directional permeabilities that is used to spot active efflux. Broadly, the IC50 is the concentration that gives 50% inhibition. By CC50 is commonly meant the concentration at which the toxic effect on the cells reaches its halfway point. Low readings indicate greater toxicity to the cells, high ones lower toxicity to the cells. Take `COCCn1cc(-c2ccc(-c3cnc(N)c4ncc(C(=O)NC5CC5)cc34)cc2)cn1` [Compound 3.48]: in series [1], the Papp A→B at 2 h, 10 μM is 362 nm/s and the efflux ratio at 2 h, 10 μM amounted to 0.64. In addition, at CDK8/Cyclin C, the IC50 worked out at 1.1 nM. The CC50 at 72 h in series [2] came out at 31800 nM.

In the case of `CN(C)C(=O)Cn1cc(-c2ccc(-c3cnc(N)c4ncc(C(=O)N5CCC5)cc34)cc2)cn1` [Compound 3.52, 2-(4-(4-(8-amino-3-(azetidine-1-carbonyl)-1,7-naphthyridine-5-yl)phenyl)-1H-pyrazole-1-yl)-N,N-dimethylacetamide], in series [1], the Papp A→B at 2 h, 10 μM amounted to 187 nm/s and the efflux ratio at 2 h, 10 μM was found to be 1.66. For the same compound, the IC50 on CDK8/Cyclin C worked out at 0.96 nM. In series [2], this compound gave a CC50 at 72 h of over 100000 nM.

`COCCn1cc(-c2ccc(-c3cnc(N)c4ncc(C(=O)NCC5CC5)cc34)cc2)cn1` [Compound 3.45, 8-amino-N-(cyclopropylmethyl)-5-(4-(1-(2-methoxyethyl)-1H-pyrazole-4-yl)phenyl)-1,7-naphthyridine-3-carboxamide]: in series [1], the Papp A→B at 2 h, 10 μM stood at 345 nm/s and the efflux ratio at 2 h, 10 μM turned out to be 0.37. In addition, at CDK8/Cyclin C, the IC50 was 1.63 nM. In addition, the CC50 at 72 h in series [2] stood at 17400 nM.
